Measurements reported in patent publication US20060089335A1, “Compositions and methods for enhancing cognitive function and synaptic plasticity” (priority 2003, published 2006).

Columns and labels:
[1] = tested on: cultured hippocampal neurons; test: field EPSC (fEPSC) recording before and after TBS; type: cell-based, rat
Procedure: (§1) Electrophysiology. Dual whole cell perforated patch clamp recordings were made on two interconnected cultured hippocampal pyramidal neurons. Perforated patch pipettes were front-filled with a solution containing (in mM): CsOH, 127; D-gluconic acid, 127; CsCl, 4; HEPES, 10; NaCl, 8; EGTA, 0.4; pH was adjusted to 7.25 with CsOH, and then back-filled with the same solution containing […] amphotericin B (Sigma, St. Louis, Mo.). Extracellular solution contained (in mM): NaCl, 145; KCl, 3; glucose, 15; HEPES, 10; MgCl2, 0.8-1.2; CaCl2, 1.2; 0.005 glycine (Sigma), 0.05 picrotoxin (Sigma); pH adjusted to 7.4 with NaOH. MgCl2 concentration was matched to its concentration in culture medium. In experiments where effects of drugs on neuronal activity were quantified (FIG. 4D), recordings were done in culture medium (with HEPES replacing bicarbonate/CO2 to maintain pH). All experiments were performed at room temperature. For assaying synaptic connectivity, each neuron was stimulated by 1 ms step depolarization from −70 to +30 mV in voltage-clamp mode. Only neurons with monosynaptic connections were used. […] Recordings with access resistance>20 MΩ or that varied substantially were rejected from analysis.
To confirm that such a prominent TBS-induced increase in Pr does contribute to the enhancement of total synaptic strength, the magnitude of potentiation was tested electrophysiologically by sampling field EPSCs (fEPSCs) before and after TBS. The whole cell recording was obtained under perforated patch configuration to avoid wash-out of the intracellular components critical for synaptic plasticity. The membrane potential was clamped at −70 mV and EPSCs were evoked by field stimulation at a sampling frequency of 0.03 Hz. [Mg^2+]o during sampling was 4 mM to reduce background neural activity. The intensity of field stimulation was adjusted to produce a half maximal fEPSC amplitude. After 30 minutes of sampling were employed to determine the baseline level of synaptic strength, the bath solution was changed to 1.2 mM [Mg^2+]o and the recording configuration to current-clamp mode to allow for membrane voltage fluctuations. TBS was delivered at the same amplitude and temporal profiles as for the FM experiments.

[2] = tested on: GluR1; test: quantitative Western blotting of hippocampal homogenate; type: in vivo, rat; settings: rat, in vivo, 6 mg/kg/day
Procedure: (§2) Quantitative Western blotting. Samples of hippocampal homogenate (10 ug/sample) were resolved on polyacrylamide gels, transferred to PVDF, and probed with anti-NR1 (Chemicon), NR2A (Upstate) or NR2B (Santa Cruz Biotech), GluR1 (Chemicon), Synapsin1 (American Qualex), or PSD-95 (Upstate) antibody followed by the appropriate secondary antibody coupled to horseradish peroxidase (1:10,000, Santa Cruz Biotech) in Tris-buffered saline (pH 7.3) containing 5% dry milk and 0.1% Tween (BioRad). Visualization of immunoreactive bands was achieved by enhanced chemiluminescence (Perkin Elmer Biosciences) and captured on autoradiography film (Kodak Scientific). Standard curves, in which the amount of protein was varied systematically, were constructed to establish that we operated within the linear range of the chemiluminescence detection method. In addition, each immunoblot was exposed to autoradiography film multiple times (average 7; minimum 5) for varying duration to make sure we operated in the linear range of the film for each experiment. Digital images, produced by scanning films on a Epson 3200 Scanner (Epson) with Epson Scan Software (Epson), were quantified using GelPro Analyzer 3.1 software. The integrated optical density (IOD) of each immunoreactive band from hippocampal samples relative to baseline measured immediately above and below the band in the same lane, and normalized by the actin or neurofilament band also in the same lane. Group data (eight animals per group) are represented as the mean+/−SEM of the IOD of samples.

[3] = tested on: NR2B; test: as above; type: in vivo, rat; settings: rat, in vivo
Procedure: as §2

[4] = tested on: cultured hippocampal neurons; test: control recordings of membrane potential, synaptic inputs and firing; type: cell-based, rat
Procedure: as §1

[5] = tested on: NR2A; test: quantitative Western blotting of hippocampal homogenate; settings: rat, in vivo
Procedure: as §2

[6] = tested on: NR1; test: as above; settings: rat, in vivo
Procedure: as §2

[7] = tested on: synapsin1; test: as above; settings: rat, in vivo
Procedure: as §2

[8] = target: NMDA receptors (NR2B-containing) (Rattus norvegicus, UniProt P35439+Q00960); test: evoked NMDA currents ([…]), double-perforated patch; type: cell-based
Procedure: as §1
We hypothesized that one target may be the number and properties of NMDA receptors at individual synapses.

[9] = tested on: presynaptic terminals of cultured hippocampal neurons; test: TBS-induced presynaptic plasticity measured by FM 1-43 dye uptake in hippocampal cultures; type: cell-based, rat
[10] = tested on: NMDAR; test: voltage-dependence of NMDAR Mg^2+ block, NMDA currents evoked by glutamate iontophoresis; type: cell-based, rat
Text: Analysis of voltage-dependence of NMDAR Mg^2+ block. For studying the voltage-dependence of NMDAR Mg^2+ block, NMDA currents were evoked by local application of glutamate using the high-speed iontophoresis technique (Murnick et al., 2002). The current traces for each cell were normalized to their value at +40 mV membrane potential. The voltage dependency of NMDA currents was modeled using the Woodhull function (Woodhull, 1973). The NMDA channel conductance in the presence and absence of Mg^2+ was related according to the relationship: [formula] • where KMg is the voltage-independent affinity of Mg^2+ for the channel (0 mV membrane potential), δ is the electrical distance of the Mg^2+ binding site in the membrane field, E is membrane potential, and z is the valence of the blocking ion. RT/F was 25.4 mV (21° C.).
Although the biophysics of Mg^2+ block have been studied extensively (Mayer et al., 1984; Nowak et al., 1984; Jahr and Stevens, 1990), we wished to determine precisely the behavior of the Mg^2+ block at near-physiologic concentrations. […] We evoked NMDA currents by iontophoretic application of glutamate to a putative single bouton identified by FM 1-43 labeling and recorded under whole cell patch clamp in the presence of the AMPAR blocker, NBQX (10 μM). […] (Renger et al., 2001).

NMDA receptors (NR2B-containing), sequence (Q00960 27-1482, other chains not shown): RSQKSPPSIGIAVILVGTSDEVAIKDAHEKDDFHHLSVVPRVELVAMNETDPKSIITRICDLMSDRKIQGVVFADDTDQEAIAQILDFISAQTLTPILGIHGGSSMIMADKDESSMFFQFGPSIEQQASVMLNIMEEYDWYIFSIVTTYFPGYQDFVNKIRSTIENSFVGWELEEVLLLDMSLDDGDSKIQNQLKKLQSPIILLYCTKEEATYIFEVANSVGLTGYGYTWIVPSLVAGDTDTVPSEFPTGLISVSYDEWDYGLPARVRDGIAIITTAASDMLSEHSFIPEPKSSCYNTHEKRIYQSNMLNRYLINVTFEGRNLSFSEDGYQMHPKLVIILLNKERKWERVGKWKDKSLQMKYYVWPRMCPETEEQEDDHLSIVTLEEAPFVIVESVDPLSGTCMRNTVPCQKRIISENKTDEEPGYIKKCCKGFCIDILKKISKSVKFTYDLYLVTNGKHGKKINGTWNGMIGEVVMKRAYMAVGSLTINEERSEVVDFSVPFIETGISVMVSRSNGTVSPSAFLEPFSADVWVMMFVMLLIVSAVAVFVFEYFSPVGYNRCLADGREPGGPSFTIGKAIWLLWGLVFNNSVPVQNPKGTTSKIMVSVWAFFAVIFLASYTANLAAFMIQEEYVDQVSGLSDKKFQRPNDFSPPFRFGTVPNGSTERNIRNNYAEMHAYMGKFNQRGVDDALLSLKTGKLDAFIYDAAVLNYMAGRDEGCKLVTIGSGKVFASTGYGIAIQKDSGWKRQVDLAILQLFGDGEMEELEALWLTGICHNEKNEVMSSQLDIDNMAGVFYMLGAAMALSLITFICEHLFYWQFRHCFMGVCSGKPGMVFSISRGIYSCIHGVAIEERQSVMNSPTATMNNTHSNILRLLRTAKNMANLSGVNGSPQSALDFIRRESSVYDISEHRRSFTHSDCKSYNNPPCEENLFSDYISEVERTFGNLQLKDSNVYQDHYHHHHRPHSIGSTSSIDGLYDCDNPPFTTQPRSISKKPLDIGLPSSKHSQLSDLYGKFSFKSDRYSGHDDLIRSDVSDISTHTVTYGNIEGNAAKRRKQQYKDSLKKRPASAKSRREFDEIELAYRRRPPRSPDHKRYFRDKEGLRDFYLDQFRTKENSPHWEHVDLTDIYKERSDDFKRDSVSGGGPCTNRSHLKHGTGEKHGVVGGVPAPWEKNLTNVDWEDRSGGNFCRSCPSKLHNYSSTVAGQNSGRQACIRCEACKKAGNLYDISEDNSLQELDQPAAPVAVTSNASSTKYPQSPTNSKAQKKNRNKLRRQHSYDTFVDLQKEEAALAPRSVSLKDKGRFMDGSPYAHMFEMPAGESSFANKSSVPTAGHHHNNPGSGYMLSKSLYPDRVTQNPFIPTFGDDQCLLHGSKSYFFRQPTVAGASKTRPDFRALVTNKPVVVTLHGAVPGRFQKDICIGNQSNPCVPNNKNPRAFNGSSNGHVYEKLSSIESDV

For `[Mg+2]` [Mg^++], the “TBS-induced increase in fEPSC amplitude” value [1] was 2.7 fold, the “duration of fEPSC increase” value [1] was “at least 1.5 hours” and the fEPSC2/fEPSC1 [1] was 2.7±0.6. For the same compound, the “increase of synaptic strength after TBS induction, average” value [1] was 2.7 fold, the “time to maximum of fEPSC increase after TBS” value [1] was roughly 10 min and the “increase in amount of GluR1” value [2] was “approximately 60%”. For the same compound, the “increase in levels of NR2B protein” value [3] was “two-fold increase”, the “increase in amount of NR2B” value ([3]; 6 mg/kg/day) was “approximately 60%” and the “EPSC1.2/EPSC0.8, overall synaptic inputs during network activity” value [4] was 1.03±0.1. For the same compound, the “EPSP1.2/EPSP0.8, spontaneous miniature EPSPAMPAs” value [4] was 0.9±0.1, the “change in average firing rates of neurons within cultured neural networks” value [4] was “none of these treatments induces a significant change” and the “change of NR2A” value [5] was “no significant changes”. The “change of NR1” value [6] was “no significant changes”, the “change of synapsin1” value [7] was “no significant changes” and the “N/A ratio (GNMDA/GAMPA)” value [8] was “increased significantly”. The “change in EPSCNMDA decay” value [8] was 2 fold, the “ifenprodil-sensitivity of EPSCNMDA in treated versus control cultures” value [8] was “much higher than in the controls” and the “increase of quantal charge transfer through NMDARs (QNMDA)” value [8] was 2.4 fold. For the same compound, the F2/F1 [9] was 2.3±0.1, the N2/N1 [9] was 2.1±0.1 and the “Pr increase after TBS” value [9] was 2.3 fold. For the same compound, the “enhancement of synaptic plasticity” value [9] was roughly 2 fold, the “increase in number of detectable FM puncta after TBS” value [9] was 2.1 fold and the “increase in total presynaptic strength after TBS” value [9] was 5.5 fold. For the same compound, the “increase in total presynaptic strength after induction” value [9] was 3.9 fold, the “increase of plasticity of presynaptic terminals (S2/S1)” value [9] was 2.4 fold and the “increase of synaptic strength at optimum concentration” value [9] was “up to approximately five-fold”. The “optimal concentration for plasticity (maximal potentiability)” value [9] was 1.2 mM, the “plasticity of presynaptic terminals after partial block of Ca flux” value [9] was “significant increases of plasticity” and the “plasticity under long term treatments” value [9] was “retain high plasticity persistently”. The “time for which potentiation was stable” value [9] was “at least 1.5 hours”, the “effect on NMDA current” value [10] was “had no effect” and the “reduction (attenuation) of NMDA current” value [10] was roughly 60%. For the same compound, the “reduction of EPSCNMDA amplitude” value [10] was 50% and the “size of outward EPSCNMDA” value [10] was “remained relatively unchanged”.
